These results are taken from ChEMBL document CHEMBL4402510, “Caprazamycins: Promising lead structures acting on a novel antibacterial target MraY” (Eur J Med Chem, 2019).

What all share (format): functional
The test system of assay [1] is Mycobacterium tuberculosis variant bovis. Briefly: Antibacterial activity against Mycobacterium bovis Ravenel.
Assay [2] has the same test system. As to the kind of experiment: Antibacterial activity against Mycobacterium bovis after 20 hrs by NCCLS-based two-fold broth dilution method. On the technique in general: In broth dilution the organism is exposed to a series of concentrations in liquid medium.
Assay [3] shares this test system. As to the kind of experiment: Antibacterial activity against Mycobacterium bovis.

Converted amounts (≈) assume the structure as drawn.

The MIC is the lowest concentration found to suppress growth. In turn, `CCCCCCCOc1ccc(NC(=O)C2=CCN(C)[C@@H]([C@H](O[C@@H]3O[C@H](CN)[C@@H](O)[C@H]3O)[C@H]3O[C@@H](n4ccc(=O)[nH]c4=O)[C@H](O)[C@@H]3O)C(=O)N2C)cc1` gave an MIC in assay [1] of 0.78 µg/mL (≈ 1.04 µM). On the same count and under the same terms, as for `CCCCCCCCCCCCCCNC(=O)C1=CCN(C)[C@@H]([C@H](O[C@@H]2O[C@H](CN)[C@@H](O)[C@H]2O)[C@H]2O[C@@H](n3ccc(=O)[nH]c3=O)[C@H](O)[C@@H]2O)C(=O)N1C`, the figure is 1.56 µg/mL (≈ 2.07 µM); as for `CCCCCCCc1ccc(NC(=O)C2=CCN(C)[C@@H]([C@H](O[C@@H]3O[C@H](CN)[C@@H](O)[C@H]3O)[C@H]3O[C@@H](n4ccc(=O)[nH]c4=O)[C@H](O)[C@@H]3O)C(=O)N2C)cc1`, 0.78 µg/mL (≈ 1.07 µM).

`CCCCCNC(=O)C1=CCN(C)[C@@H]([C@H](O[C@@H]2O[C@H](CN)[C@@H](O)[C@H]2O)[C@H]2O[C@@H](n3ccc(=O)[nH]c3=O)[C@H](O)[C@@H]2O)C(=O)N1C` came in with an MIC in assay [1] of 6.25 µg/mL (≈ 9.97 µM). The same measure, in the same setting: as for `CCCCCCCCNC(=O)C1=CCN(C)[C@@H]([C@H](O[C@@H]2O[C@H](CN)[C@@H](O)[C@H]2O)[C@H]2O[C@@H](n3ccc(=O)[nH]c3=O)[C@H](O)[C@@H]2O)C(=O)N1C`, the figure is 1.56 µg/mL (≈ 2.33 µM); as for `CCCCc1ccc(NC(=O)C2=CCN[C@@H]([C@H](O[C@@H]3O[C@H](CN)[C@@H](O)[C@H]3O)[C@H]3O[C@@H](n4ccc(=O)[nH]c4=O)[C@H](O)[C@@H]3O)C(=O)N2C)cc1`, 3.13 µg/mL (≈ 4.64 µM). The compound `CCCCCCCCCCCNC(=O)C1=CCN(C)[C@@H]([C@H](O[C@@H]2O[C@H](CN)[C@@H](O)[C@H]2O)[C@H]2O[C@@H](n3ccc(=O)[nH]c3=O)[C@H](O)[C@@H]2O)C(=O)N1C` registered an MIC in assay [1] of 1.56 µg/mL (≈ 2.19 µM). This MIC lies about 2-fold lower than the previous one. The same measure, in the same setting: as for `CCc1ccc(NC(=O)C2=CCN(C)[C@@H]([C@H](O[C@@H]3O[C@H](CN)[C@@H](O)[C@H]3O)[C@H]3O[C@@H](n4ccc(=O)[nH]c4=O)[C@H](O)[C@@H]3O)C(=O)N2C)cc1`, the figure is 1.56 µg/mL (≈ 2.36 µM); as for `CCCCCCCCCCOC(=O)C1=CCN(C)[C@@H]([C@H](O[C@@H]2O[C@H](CN)[C@@H](O)[C@H]2O)[C@H]2O[C@@H](n3ccc(=O)[nH]c3=O)[C@H](O)[C@@H]2O)C(=O)N1C`, 12.5 µg/mL (≈ 17.9 µM). Same read-out and setting: as for `CCCCCCCCCCCCCCCCCCCCCNC(=O)C1=CCN(C)[C@@H]([C@H](O[C@@H]2O[C@H](CN)[C@@H](O)[C@H]2O)[C@H]2O[C@@H](n3ccc(=O)[nH]c3=O)[C@H](O)[C@@H]2O)C(=O)N1C`, the figure is 1.56 µg/mL (≈ 1.83 µM); as for `CCCCCCCCCCCCCCCCNC(=O)C1=CCN(C)[C@@H]([C@H](O[C@@H]2O[C@H](CN)[C@@H](O)[C@H]2O)[C@H]2O[C@@H](n3ccc(=O)[nH]c3=O)[C@H](O)[C@@H]2O)C(=O)N1C`, 3.13 µg/mL (≈ 4.01 µM); as for `CCCCCCCCCCCCCCCCCCNC(=O)C1=CCN(C)[C@@H]([C@H](O[C@@H]2O[C@H](CN)[C@@H](O)[C@H]2O)[C@H]2O[C@@H](n3ccc(=O)[nH]c3=O)[C@H](O)[C@@H]2O)C(=O)N1C`, 1.56 µg/mL (≈ 1.93 µM). Still for that read-out and setting: as for `CCCCCCCCCNC(=O)C1=CCN(C)[C@@H]([C@H](O[C@@H]2O[C@H](CN)[C@@H](O)[C@H]2O)[C@H]2O[C@@H](n3ccc(=O)[nH]c3=O)[C@H](O)[C@@H]2O)C(=O)N1C`, the figure is 1.56 µg/mL (≈ 2.28 µM); as for `CC/C=C/CCCCCCCCCCOC(=O)C1=CCN(C)[C@@H]([C@H](O[C@@H]2O[C@H](CN)[C@@H](O)[C@H]2O)[C@H]2O[C@@H](n3ccc(=O)[nH]c3=O)[C@H](O)[C@@H]2O)C(=O)N1C`, 6.25 µg/mL (≈ 8.31 µM); as for `CCCCOc1ccc(NC(=O)C2=CCN(C)[C@@H]([C@H](O[C@@H]3O[C@H](CN)[C@@H](O)[C@H]3O)[C@H]3O[C@@H](n4ccc(=O)[nH]c4=O)[C@H](O)[C@@H]3O)C(=O)N2C)cc1`, 3.13 µg/mL (≈ 4.44 µM). As for `CCCCc1ccc(NC(=O)C2=CCN(C)[C@@H]([C@H](O[C@@H]3O[C@H](CN)[C@@H](O)[C@H]3O)[C@H]3O[C@@H](n4ccc(=O)[nH]c4=O)[C@H](O)[C@@H]3O)C(=O)N2C)cc1`, 3.13 µg/mL (≈ 4.54 µM) was the least that counted as inhibitory in assay [2] (MIC). In the case of `CCCCCCCCCCCCCCCCCCOC(=O)C1=CCN(C)[C@@H]([C@H](O[C@@H]2O[C@H](CN)[C@@H](O)[C@H]2O)[C@H]2O[C@@H](n3ccc(=O)[nH]c3=O)[C@H](O)[C@@H]2O)C(=O)N1C`, in assay [1], the MIC was determined as 3.13 µg/mL (≈ 3.86 µM). `CCCCCCCCCCCCNC(=O)C1=CCN(C)[C@@H]([C@H](O[C@@H]2O[C@H](CN)[C@@H](O)[C@H]2O)[C@H]2O[C@@H](n3ccc(=O)[nH]c3=O)[C@H](O)[C@@H]2O)C(=O)N1C` had an MIC in assay [1] of 1.56 µg/mL (≈ 2.15 µM). The same measure, in the same setting: for `CCCCCCCCCCCCCCCNC(=O)C1=CCN(C)[C@@H]([C@H](O[C@@H]2O[C@H](CN)[C@@H](O)[C@H]2O)[C@H]2O[C@@H](n3ccc(=O)[nH]c3=O)[C@H](O)[C@@H]2O)C(=O)N1C` the value was 1.56 µg/mL (≈ 2.03 µM); for `CCCCCCCCCCCCCCCCCCCCNC(=O)C1=CCN(C)[C@@H]([C@H](O[C@@H]2O[C@H](CN)[C@@H](O)[C@H]2O)[C@H]2O[C@@H](n3ccc(=O)[nH]c3=O)[C@H](O)[C@@H]2O)C(=O)N1C`, 0.78 µg/mL (≈ 0.932 µM); for `CCCCCCCCCCCCCCc1ccc(NC(=O)C2=CCN(C)[C@@H]([C@H](O[C@@H]3O[C@H](CN)[C@@H](O)[C@H]3O)[C@H]3O[C@@H](n4ccc(=O)[nH]c4=O)[C@H](O)[C@@H]3O)C(=O)N2C)cc1`, 3.13 µg/mL (≈ 3.78 µM). The compound `CO[C@@H]1[C@@H](OC)[C@H](C)O[C@@H](OC(=O)C[C@@H](C)CC(=O)O[C@@H](CCCCCCCCCCC(C)C)CC(=O)O[C@H]2CN(C)[C@@H]([C@H](O[C@@H]3O[C@H](CN)[C@@H](O)[C@H]3O)[C@H]3O[C@@H](n4ccc(=O)[nH]c4=O)[C@H](O)[C@@H]3O)C(=O)N(C)[C@@H]2C(=O)O)[C@@H]1OC` registered an MIC in assay [3] of 3.13 µg/mL (≈ 2.73 µM). As to `CN1C(=O)[C@H]([C@H](O[C@@H]2O[C@H](CN)[C@@H](O)[C@H]2O)[C@H]2O[C@@H](n3ccc(=O)[nH]c3=O)[C@H](O)[C@@H]2O)N(C)CC=C1C(=O)Nc1ccc(C2CCCCC2)cc1`, inhibition of growth in assay [1] (MIC) required 1.56 µg/mL (≈ 2.18 µM). With `C=CCCCCCCCCCOC(=O)C1=CCN(C)[C@@H]([C@H](O[C@@H]2O[C@H](CN)[C@@H](O)[C@H]2O)[C@H]2O[C@@H](n3ccc(=O)[nH]c3=O)[C@H](O)[C@@H]2O)C(=O)N1C`, in assay [1], inhibition of growth (MIC) required 12.5 µg/mL (≈ 17.6 µM). In assay [1], `CN1C(=O)[C@H]([C@H](O[C@@H]2O[C@H](CN)[C@@H](O)[C@H]2O)[C@H]2O[C@@H](n3ccc(=O)[nH]c3=O)[C@H](O)[C@@H]2O)N(C)CC=C1C(=O)NC1CCCCCCCCCCC1` yielded an MIC of 1.56 µg/mL (≈ 2.16 µM). The same measure, in the same setting: for `CCCCCCCC/C=C/CCCCCCCCNC(=O)C1=CCN(C)[C@@H]([C@H](O[C@@H]2O[C@H](CN)[C@@H](O)[C@H]2O)[C@H]2O[C@@H](n3ccc(=O)[nH]c3=O)[C@H](O)[C@@H]2O)C(=O)N1C` the value was 3.13 µg/mL (≈ 3.88 µM); for `CCCCCCCCCCNC(=O)C1=CCN(C)[C@@H]([C@H](O[C@@H]2O[C@H](CN)[C@@H](O)[C@H]2O)[C@H]2O[C@@H](n3ccc(=O)[nH]c3=O)[C@H](O)[C@@H]2O)C(=O)N1C`, 1.56 µg/mL (≈ 2.24 µM). Still for that read-out and setting: for `CCCCCCCCCCCCCCCCCNC(=O)C1=CCN(C)[C@@H]([C@H](O[C@@H]2O[C@H](CN)[C@@H](O)[C@H]2O)[C@H]2O[C@@H](n3ccc(=O)[nH]c3=O)[C@H](O)[C@@H]2O)C(=O)N1C` the value was 1.56 µg/mL (≈ 1.96 µM); for `CCCCCCCCCCCCCOC(=O)C1=CCN(C)[C@@H]([C@H](O[C@@H]2O[C@H](CN)[C@@H](O)[C@H]2O)[C@H]2O[C@@H](n3ccc(=O)[nH]c3=O)[C@H](O)[C@@H]2O)C(=O)N1C`, 3.13 µg/mL (≈ 4.23 µM). With `CCCCCCCNC(=O)C1=CCN(C)[C@@H]([C@H](O[C@@H]2O[C@H](CN)[C@@H](O)[C@H]2O)[C@H]2O[C@@H](n3ccc(=O)[nH]c3=O)[C@H](O)[C@@H]2O)C(=O)N1C`, in assay [1], the minimal inhibitory concentration (MIC) is 1.56 µg/mL (≈ 2.38 µM).

For the compound `CCCCCCCCCCCCCCCCCCCNC(=O)C1=CCN(C)[C@@H]([C@H](O[C@@H]2O[C@H](CN)[C@@H](O)[C@H]2O)[C@H]2O[C@@H](n3ccc(=O)[nH]c3=O)[C@H](O)[C@@H]2O)C(=O)N1C`, the MIC in assay [1] worked out at 1.56 µg/mL (≈ 1.9 µM).

For `CCCCCCCCCCCCCNC(=O)C1=CCN(C)[C@@H]([C@H](O[C@@H]2O[C@H](CN)[C@@H](O)[C@H]2O)[C@H]2O[C@@H](n3ccc(=O)[nH]c3=O)[C@H](O)[C@@H]2O)C(=O)N1C`, 1.56 µg/mL (≈ 2.11 µM) was the least that counted as inhibitory in assay [1] (MIC). On the same count and under the same terms, for `CCCCCCc1ccc(NC(=O)C2=CCN(C)[C@@H]([C@H](O[C@@H]3O[C@H](CN)[C@@H](O)[C@H]3O)[C@H]3O[C@@H](n4ccc(=O)[nH]c4=O)[C@H](O)[C@@H]3O)C(=O)N2C)cc1` the value was 0.2 µg/mL (≈ 0.279 µM); for `CCCCCCNC(=O)C1=CCN(C)[C@@H]([C@H](O[C@@H]2O[C@H](CN)[C@@H](O)[C@H]2O)[C@H]2O[C@@H](n3ccc(=O)[nH]c3=O)[C@H](O)[C@@H]2O)C(=O)N1C`, 3.13 µg/mL (≈ 4.89 µM).
